Source: patent publication EP0326134A1, “4-Amino-2,3-disubstituted-6,7-dihydro-5H-1-pyridine derivatives, process for their preparation and medicaments containing them” (NAUCHNO-ISSLEDOVATELSKY INSTITUT TEKHNOLOGII I BEZOPASNOSTI …, priority 1988, dated 1989)
Where a name gives a salt, the structure may show the parent alone. Read-outs that look alike come from different tables or passages of the source.

Assays:
[1] = tested on: Nerven-Muskel-Präparat von Mäusen (n.peroneus-m.extensor digitorum longus); assay: Neuromuscular transmission in isolated nerve-muscle preparation (EPP, minEPP); settings: for Stimulierung der Nerven-Muskelübertragung, in % der Amplitude: EPP: EPP = Endplattenpotential
Description: Der Einfluß der Stoffe auf die Nerven-Muskei-Übertragung wurde am isolierten Nerven-Muskel-Präparat von Mäusen (n.peroneus-m.extensor digitorum longus) (s. Bhattacharyya B. et al. "Neuromuscular blocking action of two hemicholinium-3 analogs" Europ. J. Pharmac. 146, 155-165 /1988/) untersucht, das von Lilly-Lösung perfundiert wurde, durch die man ein Gemisch von 02 und C02 leitete. […] Das Endplattenpotential (EPP) und das Endplattenminiaturpotential (minEPP) wurden mit Hilfe eines Magnetografen aufgezeichnet und danach mit dem Computer ausgewertet. Ermittelt wurden die Frequenz (f), die Amplitude (A) und die Dauer (t) der minEPP und der EPP (s. Tabelle 2).

[2] = Side effects and CNS/behaviour: tremor (TD50), sedative and m-cholinomimetic effects; type: in vivo; settings: for selectivity ratio / TD50: in vivo; for selectivity ratio / Verhältnis TD50 zu ED50: ED50 = dose blocking the effect of Skopolamin in 50 % of the animals (passive avoidance, mice); for selectivity ratio: read-out: Verhältnis TD50 zu ED50; for TD50 / TD50 (Tremor): toxic dose causing tremor in 50 % of the animals
Description: Von Interesse ist der Einfluß der erfindungsgemäßen Verbindungen auf das ZNS und das Verhalten der Tiere.

[3] = tested on: K -Durchlässigkeit der Membrane des Ranvier-Schnürringes; assay: K+ permeability of the node of Ranvier membrane, voltage clamp; design: species or system Frosches; settings: node of Ranvier, frog sciatic nerve fibres, voltage clamp; concentration giving 50 % block of ion permeability; read-out: Blockierung der K^+-Durchlässigkeit der Membrane Ic50 (Mol)
Description: (§1) Untersucht wurden die Wirkmechanismen der erfindungsgemäßen Verbindungen: • 1. Die Wirkung auf Acetylcholinesterase menschlicher Erythrozyten auf spektrofotometrischem Wege. • 2. Die Wirkung auf die K - und Na -Durchlässigkeit der Membrane des Ranvier-Schnürringes (s. Fox T.M. et al. "Modification of ionic membrane currrents of Ranvier nodes by UV-radiation under voltage clamp conditions", Experientia, 27, 1289-1290 /1971/ und Arhom P. et al. "Local anesthetics: effects on permeability properties of nodal membrane in myelynated nerve fibres from xenopus". Acta physiol. Scand. 91, 11-21 /1974/) der Nervenfasern des Hüftnervs des Frosches unter Anwendung der Methode der Messung der Membranspannung (Voltage-clampmethode) (s. Derksen H.E. "Axon membrane voltage fluctuations", Acta Physiol., Pharmacol Neer, 13, 373-466 /1965/).
(§2) Alle erfindungsgemäßen Verbindungen sind Blocker für die K^+-Durchlässigkeit der Membrane analog dem Amyridin. Die Salze der bicyclischen Basen blockieren jedoch stärker die Na -Durchlässigkeit der Membrane, was sich mit ihren sedativen und analgetischen Eigenschaften in Verbindung bringen läßt.

Uterus der Ratte = assay: Contractile activity of smooth muscle: rat uterus; settings: n = 9; for activity at 100 µM / activity at 10 µM: Rattus norvegicus; for activity at 100 µM: Konzentration 1.10^-4 Mol; for activity at 10 µM / Acetylcholin 1.10^-6 (Mol): Dauer, Min. / Serotonin 1.10^-6 (Mol): Dauer, Min.: Konzentration 1.10^-5 Mol
Description: (§3) In Versuchen an glattmpskulären Organen (Uterus, Samenleiter der Ratte und Krummdarm des Meerschweinchens) wurden die Wirkung der erfindungsgemäßen Verbindungen auf die kontraktile Aktivität der glatten Muskeln und ihre Reaktionen auf den Einfluß von Acetylcholin, Serotonin, Adrenalin und KCI als Agonisten untersucht. Mit Hilfe eines Schreibers wurden die Amplitude und die Dauer der Kontraktion der glatten Muskeln unter Verwendung eines Geräts vom Typ Mechanstron-untersucht.

[4] = tested on: Na -Durchlässigkeit der Membrane des Ranvier-Schnürringes; assay: Na+ permeability of the node of Ranvier membrane, voltage clamp; design: species or system Frosches; settings: node of Ranvier, frog sciatic nerve fibres, voltage clamp; concentration giving 50 % block of ion permeability; read-out: Blockierung der Na^+-Durchlässigkeit der Membrane Ic50 (Mol)
Description: as §1, §2

[5] = tested on: durch Skopolamin hervorgerufene Amnesie; assay: Dark avoidance assay (passive avoidance), scopolamine-induced amnesia; type: in vivo, Mäusen; settings: for antiamnestische Wirkung: in words, compared with Amyridin; for Einfluß auf das Gedächtnis: Zahl der Tiere in %, bei denen die Skopolaminwirkung aufgehoben wurde: mice, compound s.c. 5 min before learning, Skopolamin i.p. 30 min before
Protocol: Die Mäuse wurden dabei in den hellen Abschnitt der Kammer gegeben, wonach die Latenzzeit für den Übertritt in die dunkle Kammer, in der die Tiere einem Stromschlag von 0,5 mA ausgesetzt waren, registriert wurde. Danach erhöhte sich die Latenzzeit für den Übertritt in den dunklen Abschnitt und verringerte sich die Aufenthaltsdauer. 30 Minuten vor dem Versuch wurden den Mäusen i.p. […] Gedächtnisstörungen hervorrufendes Skopolamin als Cholinblocker injiziert. Die erfindungsgemäßen Verbindungen wurden s.c. 5 Minuten vor dem Lernvorgang injiziert. Das Skopolamin verkürzt die Latenzzeit für den Übertritt in die dunkle Kammer, die erfindungsgemäßen Verbindungen stellen jedoch die Latenzzeitwerte wie bei der Kontrollgruppe wieder her oder bedingen ein geringfügiges Überschreiten dieser Werte (siehe Tabelle 2). Gleichzeitig wird die Aufenthaltsdauer der Tiere im dunklen Abschnitt der Kammer auf 36 bis 45 Hundertstel des Ausgangswerts verringert.

[6] = Acute toxicity, single intraperitoneal injection, probit analysis (LD50); type: in vivo, Mäusen; settings: mice, i.p.
Description: Ihre akute Toxizität wurde an Mäusen (einmalige intraperitoneale Injektion) nach der Methode der Probit-Analyse nach Zichtfield, Wilcoxon, t949 untersucht. In Tabelle 2 sind die Parameter der akuten Toxizität (LDso) angegeben, die eine mäßige Toxizität der erfindungsgemäßen Verbindungen belegen.

Samenleiter der Ratte = assay: Contractile activity of smooth muscle: rat vas deferens; settings: Rattus norvegicus, Samenleiter der Ratte, n = 9, read-out: Adrenalin 1.10^-6: Amplitude, % bezogen auf d.Kontrolle; for activity at 100 µM: Konzentration 1.10^-4 Mol; for activity at 10 µM: Konzentration 1.10^-5 Mol
Description: as §3

[7] = biological target: T1, Acetylcholinesterase menschlicher Erythrozyten (Homo sapiens, UniProt P22303); assay: Acetylcholinesterase inhibition, spectrophotometric; type: biochemical; settings: Acetylcholinesteraseinhibierung bei menschlichen Erythrozyten IK, (Mol), human erythrocyte enzyme
T1 construct: Acetylcholin-esteraseinhi-bierung bei menschlichen Erythrozyten; from tissue; host or cells: human erythrocytes
T1 sequence (P22303 other isoform, or with tags, fused parts or gaps): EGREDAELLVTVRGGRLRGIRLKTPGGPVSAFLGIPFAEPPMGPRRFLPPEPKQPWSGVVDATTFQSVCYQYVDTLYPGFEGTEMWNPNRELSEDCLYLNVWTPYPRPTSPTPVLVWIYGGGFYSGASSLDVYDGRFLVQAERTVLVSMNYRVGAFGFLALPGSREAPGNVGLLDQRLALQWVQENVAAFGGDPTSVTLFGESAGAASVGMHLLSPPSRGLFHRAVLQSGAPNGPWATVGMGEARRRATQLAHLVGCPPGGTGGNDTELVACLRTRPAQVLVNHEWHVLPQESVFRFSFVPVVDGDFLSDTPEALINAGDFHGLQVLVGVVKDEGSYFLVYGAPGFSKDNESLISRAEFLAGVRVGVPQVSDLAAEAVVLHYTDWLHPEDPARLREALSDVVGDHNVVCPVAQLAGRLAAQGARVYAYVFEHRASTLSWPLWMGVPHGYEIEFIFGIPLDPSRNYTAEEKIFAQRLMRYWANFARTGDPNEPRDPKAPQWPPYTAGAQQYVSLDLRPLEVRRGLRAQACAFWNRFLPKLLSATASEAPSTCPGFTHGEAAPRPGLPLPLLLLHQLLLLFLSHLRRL
Description: Untersucht wurden die Wirkmechanismen der erfindungsgemäßen Verbindungen: • 1. Die Wirkung auf Acetylcholinesterase menschlicher Erythrozyten auf spektrofotometrischem Wege. • 2.

[8] = Uterus der Ratte, read-out: Serotonin 1.10^-6 (Mol): Amplitude, % bezogen auf die Kontrolle
[9] = mouse, in vivo, ip, read-out: LD50
[10] = Uterus der Ratte (as head prints), ditto mark -"- repeats unverändert, read-out: Acetylcholin 1.10^-6 (Mol): Amplidude, % bezogen auf d. Kontrolle
[11] = Uterus der Ratte (as head prints)

Structure (SMILES)	Stimulierung der Nerven-Muskelübertragung, in % der Amplitude: EPP [1] [%]	Stimulierung der Nerven-Muskelübertragung, in % der Amplitude: minEPP [1] [%]	selectivity ratio [2]	TD50 [2] [mg/kg]	IC50 [3] [µM]	activity at 100 µM (Uterus der Ratte; [8]) [%]	IC50 [4] [µM]	antiamnestische Wirkung [5]	Einfluß auf das Gedächtnis: Zahl der Tiere in %, bei denen die Skopolaminwirkung aufgehoben wurde [5] [%]	LD50 [6, 9] [mg/kg]	activity at 100 µM (Samenleiter der Ratte) [%]	Ki [7] [µM]	activity at 10 µM (Uterus der Ratte; [10]) [%]	activity at 10 µM (Uterus der Ratte; [8]) [%]	Acetylcholin 1.10^-6 (Mol): Dauer, Min. (Uterus der Ratte; [11]) [Min.]	Serotonin 1.10^-6 (Mol): Dauer, Min. (Uterus der Ratte; Uterus der Ratte) [Min.]	activity at 10 µM (Samenleiter der Ratte) [%]	Verhältnis TD50 zu ED50 [2]	TD50 (Tremor) [2] [mg/kg]	LD50 [6] [mg/kg]
CCNc1c(C)c(C)nc2c1CCC2 [Verbindung 20, 2,3-Dimethyl-4-ethylamino-6,7-dihydro-5H-1-pyrindin]	30	58	3.8	10	2200	125	2800	antiamnestische Wirkung, welche die von Amyridin etwas übertraf	65	18	120	7	–	–	–	–	–	–	–	–
CNc1c(C)c(C)nc2c1CCC2 [Verbindung 19, 2,3-Dimethy)-4-methy)amino-6,7-dihydro-5H-1-pyrindinhydrat]	28	56	4	12	1800	120	2500	antiamnestische Wirkung, welche die von Amyridin etwas übertraf	70	16	115	6.7	–	–	–	–	–	–	–	–
Nc1c2c(nc3c1CCC3)CCCCC2 [Verbindung 38]	28	52	7.6	17	580	–	4500	–	70	49	–	0.48	125	180	20±0.6	25±0.8	145	–	–	–
CCCc1c(C)nc2c(c1N)CCC2 [Verbindung 24]	25	54	3	10	4000	119	4200	–	68	30	120	7.5	–	–	–	–	–	–	–	–
CCc1c(C)nc2c(c1N)CCC2 [Verbindung 21, 2-Methyl-3-ethyl-4-amino-6,7-dihydro-5H-1-pyrindinhydrat]	25	58	3.8	10	3500	118	3200	antiamnestische Wirkung, welche die von Amyridin etwas übertraf	68	30	115	7	–	–	–	–	–	–	–	–
Cc1nc2c(c(N)c1-c1ccccc1)CCC2 [Verbindung 33]	20	42	–	–	6500	140	5500	–	55	–	128	48	–	–	–	–	–	2,4	15	25
CCc1nc2c(c(N)c1C)CCC2 [Verbindung 28]	22	48	–	–	120	–	150	–	80	–	–	6.1	–	–	–	–	–	11	20	40
Nc1c2c(nc3c1CCC3)CCC2 [Verbindung 37, 8-Amino-1,2,3,5,6,7-hexahydro-1-cyclopenta[b]pyrindinperchlorat]	30	66	–	–	450	–	4200	–	68	–	–	0.15	–	–	–	–	–	8,2	18	38
Nc1c2c(nc3c1CCC3)CCC2 [Verbindung 36, 8-Amino-1,2,3,5,6,7-hexahydro-1-cyclopenta[b]pyrindin-hydrochlorid]	20	60	7.5	15	420	–	5200	–	65	36	–	0.11	140	–	–	–	160	–	–	–
CCc1nc2c(c(N)c1C)CCC2 [Verbindung 30]	24	45	–	–	280	–	350	–	75	–	–	5.1	–	–	–	–	–	11	22	40
Nc1c2c(nc3c1CCC3)CCCCC2 [Verbindung 39]	25	60	–	–	480	–	5000	–	72	–	–	0.56	–	–	22±0.6	28±0.5	–	7,2	18	50
